Reference: paper PMC10606834, “Is the Neuropeptide PEN a Ligand of GPR83?” (International Journal of Molecular Sciences, 2023)
Entries after “also recorded” stand apart in the source; their conditions may differ.

How the values were obtained:
[1] = test system: ERK1/2 phosphorylation in wild-type HEK293 cells; test: ERK1/2 phosphorylation (immunoblot), wild-type cells; format: cell-based, human; conditions: 10 µM PEN #1, 15 min, n = 2
Source text: Apart from G protein-mediated second messenger signaling via Ca^2+ and cAMP, GPCR stimulation may also lead to activation of β-arrestin and phosphorylation of extracellular signal-regulated kinases 1/2 (ERK1/2). Immunoblot analysis was employed to investigate ligand-dependent phosphorylation of ERK1/2 in HEK293 cells overexpressing GPR83 or the deletion variant GPR83del as well as in wild-type HEK293 cells.
Figure 4 Ligand-dependent phosphorylation of ERK1/2 and β-arrestin (TANGO) assay. (A) Immunoblot detection of phosphorylated (upper blot) and total (lower blot) ERK1/2 in lysates of HEK293 wild-type cells and in HEK293 cells overexpressing GPR83 or GPR83del. (B) Quantification (mean ± SD of n = 2 independent experiments) of chemiluminescent readout of the immunoblots shown in (A). (C) TANGO assay for ligand-induced β-arrestin activity in HTLA cells overexpressing GPR83 (relative light units, RLU). (D) TANGO assay for ligand-induced β-arrestin activity in HTLA cells overexpressing bradykinin receptor BDKBR2.
4.7. ERK1/2 Phosphorylation Assay
Effects of GPCR ligands on MAPK signaling were assessed with Western blot analysis of lysates from stimulated cells. The ERK1/2 activation assay was performed as described before. […] Blots were analyzed using densitometric quantification using Image Lab Software v4.1 (Bio-Rad).

[2] = test system: GPR83 and GPR83del (HEK293 and U2OS clones; wild-type cells as comparison); test: Ligand-dependent cAMP formation; format: cell-based, human
Method: Production of cyclic adenosine monophosphate (cAMP) is a hallmark of GPCRs signaling via the Gs-induced pathway. To investigate the potential of PEN to stimulate cAMP production mediated by GPR83, levels of the second messenger were determined after incubation with PEN of various GPR83-overexpressing clones as well as wild-type HEK293 and U2OS cells.
Figure 3 Analysis of ligand-dependent, GPR83-mediated cAMP production. (A) Wild-type HEK293 and U2OS cells as well as various clones with confirmed overexpression of either GPR83 or the deletion variant GPR83del (both ± HA tag) were incubated with either buffer, 1 µM PEN, or 50 µM forskolin. (B) Selected GPR83-overexpressing HEK293 clones were assayed for cAMP production using different concentrations of PEN. (C) Selected GPR83-overexpressing U2OS clones were assayed for cAMP production using different concentrations of PEN.
To measure intracellular cAMP production, the LANCE Ultra cAMP kit (Perkin Elmer) was used according to the manufacturer’s instructions. The day before the experiment, cells were seeded onto a 96-well plate with approximately 80% confluence. After 16–24 h, the medium was removed, and 100 μL/well of serum-free medium was added, followed by a 3 h incubation. Thereafter, medium was removed, and 40 μL of ligand dissolved in cAMP stimulation buffer was pipetted onto cells, then incubated for 10 min. The ligands used were pipetted in duplicate. For concentration–response curves, serial dilutions were carried out from the stock solutions of 1 mM to create a concentration range from 1 µM to 30 pM. As controls, 4 wells were treated with buffer only (negative control) and 4 wells with 50 μM forskolin (positive control). After a 10 min incubation, 10 μL of a 0.5% Triton-X 100 solution in PBS was added to each well. To lyse cells, the plate was shaken on a Vibramax 100 Shaker (Heidolph, Kelheim, Germany) (750 rpm) at room temperature for 10 min. A 10 μL volume of the cell lysates were transferred into a white 384 well plate (ProxiPlate, PerkinElmer). A 5 μL volume of the Europium-cAMP tracer (1 to 50 dilution of Eu-tracer stock in cAMP detection buffer) was added to each well. Next, 5 μL of the ULight-anti-cAMP solution (1 to 150 dilution of ULight-tracer stock in cAMP detection buffer) was added to each well. After a 1 h incubation period at room temperature in the dark, the TR-FRET signal was measured using an EnVision 2103 Multilabel Reader (Perkin Elmer).

[3] = test system: HEK293 cells; conditions: some batches of HEK293 cells; ref [10]; cited from earlier work
Source text: (§1) While the earlier study employed CHO cells from Cricetulus griseus and Neuro2A cells from Mus musculus overexpressing human GPR83 [10], this study used human HEK293 and U2OS c ...

[4] = test system: GPR83 (CHO and Neuro2A cells); conditions: CHO and Neuro2A cells overexpressing human GPR83; ref [10]; cited from earlier work
Source text: as §1

Sequence: AADHDVGSELPPEGVLGALLRV [PEN, batch #1 synthesized, batch #2 purchased from Phoenix Pharmaceuticals]
- phosphorylation of ERK1/2, wild-type HEK293 versus GPR83 or GPR83del cells [1]: equally strong ERK1/2 phosphorylation in wild-type HEK293 cells as well as in HEK293 cells overexpressing GPR83 or GPR83del; also recorded: also demonstrated a similar phosphorylation after incubation with PEN
- cAMP levels ([2]; 1 µM PEN or 50 µM forskolin, GPR83-overexpressing clones and wild-type HEK293 and U2OS cells, 10 min incubation, LANCE Ultra cAMP kit, TR-FRET competition, duplicate): did not change it
- cAMP formation, concentration-response ([2]; titration 50 pM to 1 µM, selected GPR83-expressing HEK293 and U2OS clones, LANCE Ultra cAMP kit, TR-FRET, 10 min incubation, duplicate): did not indicate PEN-dependent cAMP formation
- increased (via Gs) or decreased (via Gi) production of cAMP ([2]; up to 1 µM PEN, multiple clones of GPR83-overexpressing HEK293 and U2OS cells): did not reveal any evidence for an increased (via Gs) or decreased (via Gi) production of cAMP
- response of HEK293 cells [3]: had not responded to PEN
- GPR83-mediated cAMP signaling [4]: Modification of GPR83-mediated cAMP signaling by PEN has been previously reported
